Measurements published in patent publication US8158575B2, “Agent for the prevention and treatment of sexually transmitted diseases-I” (priority 2001, dated 2012).
“And” between values parts separate entries of the source, which are not always exact repeats. Equal entries are not always repeated.

Experiments:
PBMCs = test: MTS cell viability in PBMC assay; type: cell-based, human; settings: AZT control
Description: Human peripheral blood mononuclear cells from a minimum of 2 donors, that have been blasted with PHA and IL-2, were counted, viability determined by Trypan Blue dye exclusion and mixed in equal ratios. Pooled donors were used to minimize the variability observed between individual donors which results from quantitative and qualitative differences in HIV infection and overall response to the PHA and IL-2 of primary lymphocyte populations. The cells were resuspended at 1×10^6 cells/mL in RPMI 1640 without phenol red supplemented with 15% Fetal Bovine Serum (heat inactivated), 2 mM L-glutamine, 100 U/mL penicillin, 100 μg/mL streptomycin, 10 μg/mL gentamycin and IL-2 (20 U/mL, R&D Systems, Minneapolis, Minn.). Fifty microliters of cells were then distributed to the inner 60 wells of a 96 well round bottom microtiter culture plate in a standard format developed by the Infectious Disease Research department of Southern Research Institute. Each plate contains cell control wells (cells only), virus control wells (cells plus virus), and experimental wells (drug plus cells plus virus). Serially diluted compounds are added to the microtiter plate followed by the appropriate pre-titered strain of HIV-1 or SHIV-1. All samples were assayed in triplicate with a replicate plate without virus for the determination of compound toxicity. The final volume per well was 200 µL. The assay was incubated for 6 days in a humidified atmosphere at 37° C., 5% CO2, after which supernatants were collected, for analysis of RT activity and sister plates analyzed for cell viability by MTS dye reduction. Wells were also examined microscopically and any abnormalities noted.
At assay termination the assay plates were stained with the soluble tetrazolium-based dye MTS (CellTiter® Reagent Promega, Madison, Wis.) to determined cell viability and quantify compound toxicity. […] At termination of the PBMC assay 20 µL of MTS reagent was added per well, and the wells are incubated for 4 h at 37° C.
AZT has been used as a relevant positive control compound for the individual assays.

HIV-1 RoJo = test: PBMC antiviral assay (RT activity); type: cell-based; settings: 6 days, AZT control, read-out: HIV-1 RoJo Infected PBMCs IC50
Description: (§1) Human immunodeficiency virus type 1 (HIV-1) strain RoJo is a low passage pediatric isolate derived in the laboratories of Southern Research Institute (SRI). The SHIV89.6pd was obtained from Mark Lewis at SRI and stocks grown in human PBMCs for antiviral testing.
(§2) Peripheral blood monocular cells (PBMCs) were obtained from normal hepatitis and HIV-1 negative donors by ficoll hypaque gradient separation. Briefly, anti-coagulated blood was diluted 1:1 with Dulbecco's phosphate buffered saline without Ca^++ and Mg^++ (PBS) and layered over 14 mL of Lymphocyte separation media in a 50 ml centrifuge tube. Tubes were then centrifuged for 30 minutes at 600×g. […] The mononuclear cells were counted, viability determined by Trypan Blue dye exclusion and resuspended in RPMI 1640 medium supplemented with 15% FBS (heat inactivated), 2 mM L-glutamine, 100 U/mL penicillin, 100 µg/mL streptomycin, and 10 µg/mL gentamycin with 2 µg/mL phytohemagluttin (PHA) at 1×10^6 cells/mL. […]
(§3) Human peripheral blood mononuclear cells from a minimum of 2 donors, that have been blasted with PHA and IL-2, were counted, viability determined by Trypan Blue dye exclusion and mixed in equal ratios. […] The assay was incubated for 6 days in a humidified atmosphere at 37° C., 5% CO2, after which supernatants were collected, for analysis of RT activity and sister plates analyzed for cell viability by MTS dye reduction. […]

SHIV 89.6pd = test: PBMC antiviral assay (RT activity); type: cell-based; settings: 6 days, AZT control, read-out: SHIV 89.6pd Infected PBMCs IC50
Description: as §1, §2, §3

HeLa CD4 LTR […]-gal cells [1] = test: XTT toxicity on sister plate of the fusion assay; type: cell-based; settings: XTT, sister plate
Description: (§4) The fusion assay assesses the ability of compounds to block cell-to-cell fusion mediated by HIV-1 Env and CD4 expressed on separate cells. This assay is sensitive to inhibitors of both the gp120/CD4 interaction and inhibitors of the X4 coreceptor. First, 5×10^3 HeLa CD4 LTR […]-gal cells are placed in microtiter wells and incubated overnight. The following day the media is removed and the HeLa CD4 LTR […]-gal cells are incubated for 1 h at 37° C. in fresh media with test compound. Following the incubation 5×10^3 HL2/3 cells are added and the incubation continued for 40 to 48 h. At 40 to 48 h […]-galactosidase enzyme expression is detected by chemiluminescence (Tropix Gal-screen™, Tropix, Bedford, Mass.). Compound toxicity is monitored on a sister plate using XTT dye reduction.

[2] = molecular target: T1, cell-to-cell fusion mediated by HIV-1 Env and CD4 (Human immunodeficiency virus type 1 group M subtype B, UniProt P04578); type: cell-based; settings: TC50/IC50
T1 construct: expressed in transfected cells; host or cells: HeLa CD4 LTR beta-gal cells (CD4) co-cultured with HL2/3 cells (HIV-1 Env)
Description: as §4

HeLa CD4 LTR […]-gal cells [3] = test: XTT toxicity on sister plate of the attachment assay; type: cell-based; settings: XTT, sister plate
Description: This assay is designed to detect compounds that interact with the cell and block virus attachment, and/or compounds which interact with the forming attachment/fusion complex. The attachment assay is performed with HeLa CD4 LTR […]-gal cells. HeLa CD4 LTR […]-gal cells are routinely cultured with the required selection antibiotics. Twenty-four h prior to initiation of the assay the cells are trypsinized, counted and 1×10^4 cells placed in a 0.2 cm well in media without selection antibiotics. At 24 h media is removed and compound in media placed on the cells and incubated for 15 min at 37° C. A known titer of the IIIB strain of HIV is then added to the wells and the incubation continued for 1 h. At the end of the incubation the wells are washed 3 times with media and the culture continued for 40 to 48 h. At termination of the assay, media is removed and […]-galactosidase enzyme expression determined by chemiluminescence per manufacturers instructions (Tropix Gal-screen™, Bedford Mass.) by a single step chemiluminescent method using a single solution to lyse the cells and detect […]-galactosidase enzyme activity. Compound toxicity is monitored on a sister plate by XTT dye reduction. […] The virus adsorption interval of 1 h is sufficiently short that AZT, which requires phosphorylation to its active tri-phosphate form (AZT-TTP), is not active in this assay.

ME180 cells = test: XTT cell viability in the CD4-independent transmission assay
Description: ME180 cells, a CD4 negative, X4 positive cervical epithelial cell line is maintained in RPMI 1640 supplemented with 10% fetal bovine serum, glutamine and antibiotics. Twenty-four h prior to the assay ME180 cells are trypsonized, washed and seeded in 96-well flat bottom microtiter plates at a density of 2×10^3 cells per well. On the day of the assay, H9 cells chronically infected with the SK1 clinical isolate of HIV-1 (H9-SK1) are treated with freshly made mitomycin C (200 μg/ml) for 60 minutes at 37° C. This concentration of mitomycin C is sufficient to result in cell death, but allows virus transmission to occur. After mitomycin C treatment the H9-SK1 cells are washed three times with tissue culture medium. Test compounds are added to the ME180 monolayer followed by 2×10^4 H9-SK1 cells. The ME180 cells are co-cultured with H9-SK-1 cells and test material for 4 h, and the H9-SK1 cells are removed by washing the ME180 monolayer three times with PBS. At 24 and 48 h post assay initiation the wells are again washed three times with PBS to ensure removal of the H9-SK1 cells, and culture continued in test material free media. At six days post-co-cultivation, supernatants are collected and evaluated for p24 antigen expression by ELISA. Cell viability is assessed by XTT dye reduction. […] Testing in the presence of mucin is carried out by addition of 200 µg/ml of porcine mucin (Sigma Chemical Co., St Louis, Mo.) to the transmission reactions. Transmission intervals and washing without replacement of mucin or compound are carried as described above. All determinations are performed in triplicate with serial ½ Log10 dilution of the test materials.
TC50 values for the test materials are derived by measuring the reduction of the tetrazolium dye XTT (2,3-bis(2-methoxy-4-nitro-5-sulfophenyl)-5-[(phenylamino)carbonyl]-2H-tetrazolium hydroxide) in replicate microtiter plates containing cell and compound without virus. […] XTT solution is prepared daily as a stock of 1 mg/mL in PBS. Phenazine methosulfate (PMS) solution is prepared at 15 mg/mL in PBS and stored in the dark at −20° C. XTT/PMS stock is prepared immediately before use by diluting the PMS 1:100 into PBS and adding 40 µl per mL of XTT solution. Fifty microliters of XTT/PMS are added to each well of the plate and the plate incubated for 4 h at 37° C. The 4 h incubation has been empirically determined to be within the linear response range for […] dye reduction with the indicated numbers of cells for each assay. Adhesive plate sealers are used in place of the lids, the sealed plate is inverted several times to mix the soluble formazan product and the plate is read at 450 nm with a Molecular Devices Vmax 96 well plate format spectrophotometer.
Dextran sulfate (positive) and dextran (negative) are used as controls for the CD4-dependent and CD4-independent HIV transmission inhibition assays. […] Commercially available Penicillin (10,000 U/ml) Streptomycin (10.0 mg/ml) solution is used as a positive control for the Lactobacillus sensitivity assay.

GHOST(3) X4/R5 cell line = test: XTT cell viability in the CD4-dependent transmission assay; type: cell-based, human
Description: The […] is carried out essentially as described for the CD4-independent transmission assay except for the use of the CD4 positive GHOST(3) X4/R5 cell line. This cell line is derived from the HOS (human osteosarcoma) cell line that is negative for HIV coreceptor and CD4 expression. The cell line is engineered to express T4 (CD4), R5 and X4 via non-selectable retroviral vectors and an HIV-2 LTR hGFP construct with a hygromycin selectable marker. The cell lines are handled and cultured as described above for the CD4-independent HIV inhibition assay, with the exception that 2.5×10^4 GHOST(3) X4/R5 and 5×10^2 mitomycin C treated H9/SK-1 cells are used in the assay. Addition of compounds, mitomycin C treatment and post-transmission washing to remove the H9/SK-1 cells are performed as described above to allow comparability of the two antiviral assays. Virus replication is assessed at 24 h post infection, following 3 washes, by measurement of cell-associated p24 by ELISA to ensure a single round of infection in the presence of CD4. Compound toxicity and cell viability are assessed by XTT dye reduction.

## Cc1cn([C@H]2C[C@H](N=[N+]=[N-])[C@@H](CO)O2)c(=O)[nH]c1=O [AZT, reference compound]
PBMCs; plate of the HIV-1 RoJo test
  HIV-1 RoJo Infected PBMCs TC50: >1000 nM
PBMCs; plate of the SHIV 89.6pd test
  SHIV 89.6pd Infected PBMCs TC50: >1000 nM
HIV-1 RoJo
  IC50: 5 nM
SHIV 89.6pd
  IC50: 2 nM

## COc1cc(-c2ccc(/N=N/c3ccc4c(S(=O)(=O)O)cc(S(=O)(=O)O)c(N)c4c3O)c(OC)c2)ccc1/N=N/c1ccc2c(S(=O)(=O)O)cc(S(=O)(=O)O)c(N)c2c1O [Chicago Sky Blue, reference compound]
HeLa CD4 LTR […]-gal cells [1]
  Fusion Assay TC50: >10 µg/mL
[2]
  Fusion Assay TI: >12 and >16
HeLa CD4 LTR […]-gal cells [3]
  Attachment Assay TC50: >10 µg/mL

## Dextran sulfate
ME180 cells; Exp. 2, with mucin
  CD4-Independent Transmission Assay TC50: >50 µg/mL
ME180 cells; Exp. 2, without mucin
  CD4-Independent Transmission Assay TC50: >50 µg/mL
GHOST(3) X4/R5 cell line; Exp. 1, without mucin
  CD4-Dependent Transmission Assay TC50: >100 µg/mL
GHOST(3) X4/R5 cell line; Exp. 2, with mucin
  CD4-Dependent Transmission Assay TC50: >50 µg/mL
GHOST(3) X4/R5 cell line; Exp. 2, without mucin
  CD4-Dependent Transmission Assay TC50: >50 µg/mL

## dextran
ME180 cells; Exp. 2, with mucin
  CD4-Independent Transmission Assay TC50: >100 µg/mL
ME180 cells; Exp. 2, without mucin
  CD4-Independent Transmission Assay TC50: >100 µg/mL
GHOST(3) X4/R5 cell line; Exp. 1, without mucin
  CD4-Dependent Transmission Assay TC50: >100 µg/mL
GHOST(3) X4/R5 cell line; Exp. 2, with mucin
  CD4-Dependent Transmission Assay TC50: >100 µg/mL
GHOST(3) X4/R5 cell line; Exp. 2, without mucin
  CD4-Dependent Transmission Assay TC50: >100 µg/mL
